Reference: patent US9250249B2, “Autophagy and phospholipidosis pathway assays” (Enzo Biochem, Inc., priority 2008, dated 2016)

Assays:
U2OS cells [1] = experiment: Fluorescence microplate-based lysosomal perturbation assay (Dye 1 fluorescence), incl. ICCB library screen
Experimental: In order to increase throughput and reduce handling time, the fluorescence microscopy-based lysosomal perturbation assay was scaled up to a 96-well microplate plate assay format and analyzed using a fluorescence microplate reader.
Fluorescence intensity of the cells cultured on the 96-well plates was measured using a FLUOstar OPTIMA Multifunction Microplate Reader (BMG LabTech, Offenburg, Germany). […] Fluorescence intensity was expressed as percentage of the vehicle control value.
In the preliminary screen, test agents were employed at a single dose in an effort to identify any potential lysosome-modifying agents.

[2] = tested on: U2OS human osteosarcoma cells; experiment: Fluorescence microscopy-based lysosomal perturbation assay (Dye 1 staining); format: cell-based; conditions: U2OS cells pre-treated with drug (chloroquine 8-64 μM, 18 hours), Dye 1 15 min
Experimental: U2OS human osteosarcoma cells were maintained in McCoy's 5a modified medium supplemented with 10% FBS and 100 units/ml penicillin/streptomycin (Invitrogen, Carlsbad, Calif.) in a humidified 37° C., 5% CO2 environment. Cells were allowed to proliferate on glass slides or were seeded into 96-well plates at a density of 2×10^4 cells/well and allowed to attach overnight. The cells were plated such that at the end of the experiment, they reached about 90% confluency.
The fluorescence-based lysosomal perturbation assay was established by first incubating cells cultivated on glass slides for 4-24 hours with chloroquine (8-64 μM final concentration), a well known phospholipidosis-inducing agent. Control cells were incubated with 0.1% (v/v) dimethyl sulfoxide (DMSO), which served as the vehicle control. Cells were then briefly (15 min) incubated with a combination of Dye 1 and Hoechst 33342 dye. Following incubation, cells grown on glass microscope slides were covered with glass coverslips, sealed with nail polish and observed using an inverted Axiovert 200M microscope (Carl Zeiss, Inc., Oberkochen, Germany). Images were acquired with a 63× objective lens (Zeiss).
Cells were subsequently stained with Dye 1 for 15 minutes. Nuclei were counter-stained with Hoechst 33342 dye. In FIG. 1, control U2OS cells are shown in (A), cells pre-treated for 18 hours with 8 μM chloroquine in (B), cells pre-treated for 18 hours with 16 μM chloroquine in (C) and cells pre-treated for 18 hours with 64 μM chloroquine in (D). This staining pattern was also consistently observed for other drugs that are known to induce phospholipidosis, such as chlorpromazine, fluoxetine, pimozide and verapamil (further described in Example 4). […] The ability of Dye 1 to detect vacuole accumulation in the described in vitro cell culture model mimicking Fabry disease strongly supports the present invention and its suitability for the detection of genetically derived lysosomal storage diseases.

U2OS cells [3] = experiment: Multiplexed CF-PE / Dye 1 / Hoechst 33342 microplate assay distinguishing phospholipidosis from autophagy pathway inhibition; format: cell-based, human; conditions: 24 h with CF-PE medium and test compound
Experimental: For example, CF-PE was suspended in ethanol and diluted in the cell culture medium (McCoy's 5a modified medium, as described in Example 3) to give a solution (CF-PE medium) with final concentration of 50 μM (0.46% ethanol). […] medium was then sonicated and filtered through a […] filter. The prepared was then applied to U2OS cells growing in a 96-well microplate. After an equilibration period of 24 h, the cell culture medium was replaced with CF-PE medium with or without each test compound, and the cells were incubated at 37° C. for an additional 24 h. After incubation, the cells were rinsed with medium and further incubated with the same medium containing Dye 1 and Hoechst 33342 dye for an additional 15 min at 37° C. in 5% CO2 atmosphere.
Fluorescence signal was determined using a standard microplate reader, as described in example 4, except that CF-PE was additionally read at an excitation wavelength of 492 nm and an emission wavelength of 517 nm. […] Generalized cytotoxicity is evident as a substantial decrease in blue signal (≧30%) relative to vehicle-treated control cells.

U2OS cells [4] = experiment: Lipid-Tox fluorescent phospholipid analog-based phospholipidosis assay; format: cell-based, human; conditions: 24 hours co-incubation with Lipid-Tox dye and drug
Experimental: Many assays of phospholipidosis, including the Lipid-Tox assay (Invitrogen, Carlsbad, Calif.), are based upon co-incubating cells with a fluorescent phospholipid analog for an extended period of time, along with the drug or test agent being evaluated, and then monitoring signal generation in fixed and permeabilized cells. Dye 1 is not a fluorescent phospholipid analog, but instead is a cationic amphiphilic fluorophore tracer. Cells are incubated with the drug or test agent in isolation and then briefly treated with the tracer dye before evaluation in live cells. […] Choloroquine, a prototypical phospholipidosis-inducing agent, and bafilomycin A, an agent well known to induce the accumulation of autophagosomes, were evaluated using both Dye 1 and Lipid-Tox dye-based assays (FIG. 3). […] Cells stained with Lipid-Tox dye (solid triangles dash-dot line) were incubated in the presence of the fluorescent lipid for 24 hours during treatment with the drugs.

HeLa cells = experiment: Fluorescence microscopy lysosomal perturbation assay with Dye 6; format: cell-based; conditions: chloroquine 120 μM for 6 hours, Dye 6 15 min
Experimental: HeLa cells were maintained in Dulbecco's modified Eagles medium supplemented with 10% FBS, 100 units/ml penicillin/streptomycin (Invitrogen, Carlsbad, Calif.) and MEM non essential amino acids in a humidified 37° C., 5% CO2 environment. Cells were allowed to proliferate on glass slides at a density of 2×10^4 cells/well and allowed to attach overnight. The cells were plated such that at the end of the experiment, they reached about 90% confluency.
The fluorescence-based lysosomal perturbation assay was established by first incubating cells cultivated on glass slides for 6 hours with chloroquine (120 μM final concentration), a well known phospholipidosis-inducing agent. Control cells were incubated with 0.1% (v/v) dimethyl sulfoxide (DMSO), which served as the vehicle control. Cells were then briefly (15 min) incubated with Dye 6 at room temperature. Following incubation, cells grown on glass microscope slides were covered with glass coverslips, sealed with nail polish and observed using an Olympus BX51 microscope. Images were acquired with a 40× objective lens. […] The untreated cells gave a low level of fluorescent staining.

CCN(CC)CCCC(C)Nc1ccnc2cc(Cl)ccc12 (stereo not shown) [chloroquine]
vacuolation / expansion of lysosomal compartment detected by Dye 1 assay (U2OS cells [1]; Dye 1 stained post drug incubation): induced an expansion in the lysosomal compartment
EC50 (U2OS cells [1]; Homo sapiens, 18 h, read-out: EC50 (Dye 1-based assay)): 15 µM
punctate pattern of cytoplasmic staining / levels of Dye 1 in the cells [2]: increased in a dose-dependent manner
green signal (CF-PE) relative to vehicle-treated controls (U2OS cells [3]; ex 492 nm, em 517 nm): increased green and red signal
red signal (Dye 1) relative to vehicle-treated controls (U2OS cells [3]; then Dye 1 15 min): increased green and red signal
vacuolation / expansion of lysosomal compartment detected by Lipid-Tox assay (U2OS cells [4]): induced an expansion in the lysosomal compartment
fluorescence intensity of lysosomal staining with Dye 6 (HeLa cells): increase in fluorescence intensity of lysosomal staining
